# Results taken from ChEMBL document CHEMBL3045244, “Design and synthesis of novel piperazine unit condensed 2,6-diarylpiperidin-4-one derivatives as antituberculosis and antimicrobial agents” (2012).
# Calls of active or inactive are those of the source. No cut-off for these calls is given here.
# How the values were obtained:
# Cryptococcus neoformans = assay: Antifungal activity against Cryptococcus neoformans ATCC 3315 after 72 to 96 hr by two-fold serial dilution method; format: functional
# Aspergillus niger [1] = assay: Antifungal activity against Aspergillus niger ATCC 591 after 72 to 96 hr by two-fold serial dilution method; format: functional
# Candida albicans [2] = assay: Antifungal activity against Candida albicans ATCC 3130 after 72 to 96 hr by two-fold serial dilution method; format: functional
# [3] = test system: Mycobacterium tuberculosis; assay: Antituberculosis activity against Mycobacterium tuberculosis H37Rv ATCC 27294 after 21 days by BACTEC based radiometric respiratory technique; format: functional; conditions: H37Rv ATCC 27294, 504 h
# Escherichia coli = assay: Antibacterial activity against Escherichia coli ATCC 25840 after 24 hr by two-fold serial dilution method; format: functional; conditions: ATCC 25840, 24 h
# Salmonella typhi [4] = assay: Antibacterial activity against Salmonella enterica subsp. enterica serovar Typhi ATCC 24930 after 24 hr by two-fold serial dilution method; format: functional; conditions: ATCC 24930, 24 h
# Rhizopus = assay: Antifungal activity against Rhizopus sp. ATCC 2920 after 72 to 96 hr by two-fold serial dilution method; format: functional
# Bacillus subtilis [5] = assay: Antibacterial activity against Bacillus subtilis ATCC 461 after 24 hr by two-fold serial dilution method; format: functional; conditions: ATCC 461, 24 h
# [6] = test system: Mycobacterium tuberculosis; assay: Ratio of rifampicin MIC to compound MIC for Mycobacterium tuberculosis H37Rv ATCC 27294; format: functional
# Aspergillus flavus [7] = assay: Antifungal activity against Aspergillus flavus ATCC 470 after 72 to 96 hr by two-fold serial dilution method; format: functional
# Klebsiella pneumoniae [8] = assay: Antibacterial activity against Klebsiella pneumoniae ATCC 15499 after 24 hr by two-fold serial dilution method; format: functional; conditions: ATCC 15499, 24 h
# Staphylococcus aureus [9] = assay: Antibacterial activity against Staphylococcus aureus ATCC 25833 after 24 hr by two-fold serial dilution method; format: functional; conditions: ATCC 25833, 24 h
# [10] = test system: Mycobacterium tuberculosis; assay: Ratio of isoniazid MIC to compound MIC for Mycobacterium tuberculosis H37Rv ATCC 27294; format: functional
# Salmonella typhi [11] = assay: Antibacterial activity against Salmonella enterica subsp. enterica serovar Typhi ATCC 24930 at 200 ug/ml after 24 hr by two-fold serial dilution method; format: functional, organism-based
# Aspergillus flavus [12] = assay: Antifungal activity against Aspergillus flavus ATCC 470 at 200 ug/ml after 72 to 96 hr by two-fold serial dilution method; format: functional, organism-based
# Staphylococcus aureus [13] = assay: Antibacterial activity against Staphylococcus aureus ATCC 25833 at 200 ug/ml after 24 hr by two-fold serial dilution method; format: functional, organism-based
# Aspergillus niger [14] = assay: Antifungal activity against Aspergillus niger ATCC 591 at 200 ug/ml after 72 to 96 hr by two-fold serial dilution method; format: functional, organism-based
# Klebsiella pneumoniae [15] = assay: Antibacterial activity against Klebsiella pneumoniae ATCC 15499 at 200 ug/ml after 24 hr by two-fold serial dilution method; format: functional, organism-based
# Bacillus subtilis [16] = assay: Antibacterial activity against Bacillus subtilis ATCC 461 at 200 ug/ml after 24 hr by two-fold serial dilution method; format: functional, organism-based
# Candida albicans [17] = assay: Antifungal activity against Candida albicans ATCC 3130 at 200 ug/ml after 72 to 96 hr by two-fold serial dilution method; format: functional, organism-based
Compound,MIC (Cryptococcus neoformans),MIC (Aspergillus niger [1]),MIC (Candida albicans [2]),MIC [3],MIC (Escherichia coli),MIC (Salmonella typhi [4]),MIC (Rhizopus),MIC (Bacillus subtilis [5]),Ratio [6],MIC (Aspergillus flavus [7]),MIC (Klebsiella pneumoniae [8]),MIC (Staphylococcus aureus [9]),Ratio [10],further results
CCOC(=O)N1CCN(CC(=O)N2C(c3ccc(F)cc3)CC(=O)C(CC)C2c2ccc(F)cc2)CC1 (centres undefined),100 µg/mL,12.5 µg/mL,50 µg/mL,64 µg/mL,12.5 µg/mL,50 µg/mL,12.5 µg/mL,100 µg/mL,50,100 µg/mL,12.5 µg/mL,100 µg/mL,0.39,–
CCOC(=O)N1CCN(CC(=O)N2C(c3cccc(F)c3)CC(=O)C(C)C2c2cccc(F)c2)CC1 (centres undefined),12.5 µg/mL,25 µg/mL,6.25 µg/mL,> 256 µg/mL,6.25 µg/mL,–,50 µg/mL,100 µg/mL,–,100 µg/mL,6.25 µg/mL,50 µg/mL,–,Activity (Salmonella typhi [11]): inactive
CCOC(=O)N1CCN(CC(=O)N2C(c3ccc(Cl)cc3)C(C)C(=O)C(C)C2c2ccc(Cl)cc2)CC1 (centres undefined),200 µg/mL,50 µg/mL,100 µg/mL,16 µg/mL,100 µg/mL,25 µg/mL,25 µg/mL,50 µg/mL,200,–,50 µg/mL,50 µg/mL,1.56,Activity (Aspergillus flavus [12]): inactive
CCOC(=O)N1CCN(CC(=O)N2C(c3ccc(C)cc3)CC(=O)C(C)C2c2ccc(C)cc2)CC1 (centres undefined),50 µg/mL,50 µg/mL,200 µg/mL,> 256 µg/mL,50 µg/mL,200 µg/mL,200 µg/mL,100 µg/mL,–,200 µg/mL,100 µg/mL,–,–,Activity (Staphylococcus aureus [13]): inactive
CCOC(=O)N1CCN(CC(=O)N2C(c3cccc(F)c3)C(C)C(=O)C(C)C2c2cccc(F)c2)CC1 (centres undefined),25 µg/mL,6.25 µg/mL,100 µg/mL,16 µg/mL,50 µg/mL,–,12.5 µg/mL,12.5 µg/mL,200,–,100 µg/mL,6.25 µg/mL,1.56,Activity (Salmonella typhi [11]): inactive; Activity (Aspergillus flavus [7]): inactive
C[C@@H]1[C@H](O)[C@@H](C)/C=C/C=C/C=C/C=C/C=C/C=C/C=C/[C@H](O[C@@H]2O[C@H](C)[C@@H](O)[C@H](N)[C@@H]2O)C[C@@H]2O[C@](O)(C[C@@H](O)C[C@@H](O)[C@H](O)CC[C@@H](O)C[C@@H](O)CC(=O)O[C@H]1C)C[C@H](O)[C@H]2C(=O)O [AMPHOTERICIN B],25 µg/mL,50 µg/mL,25 µg/mL,–,–,–,25 µg/mL,–,–,50 µg/mL,–,–,–,–
CCOC(=O)N1CCN(CC(=O)N2C(c3ccccc3)CC(=O)C(CC)C2c2ccccc2)CC1 (centres undefined),25 µg/mL,–,12.5 µg/mL,16 µg/mL,25 µg/mL,100 µg/mL,100 µg/mL,50 µg/mL,200,12.5 µg/mL,–,200 µg/mL,1.56,Activity (Aspergillus niger [14]): inactive; Activity (Klebsiella pneumoniae [15]): inactive
NNC(=O)c1ccncc1 [ISONIAZID],–,–,–,0.25 µg/mL,–,–,–,–,–,–,–,–,–,–
CCOC(=O)N1CCN(CC(=O)N2C(c3ccc(F)cc3)CC(=O)C(C)C2c2ccc(F)cc2)CC1 (centres undefined),25 µg/mL,100 µg/mL,25 µg/mL,> 256 µg/mL,100 µg/mL,25 µg/mL,100 µg/mL,25 µg/mL,–,25 µg/mL,12.5 µg/mL,50 µg/mL,–,–
CO[C@H]1/C=C/O[C@@]2(C)Oc3c(C)c(O)c4c(O)c(c(/C=N/N5CCN(C)CC5)c(O)c4c3C2=O)NC(=O)/C(C)=C\C=C\[C@H](C)[C@H](O)[C@@H](C)[C@@H](O)[C@@H](C)[C@H](OC(C)=O)[C@@H]1C [RIFAMPIN],–,–,–,32 µg/mL,–,–,–,–,–,–,–,–,–,–
CC1(C)S[C@@H]2[C@H](NC(=O)Cc3ccccc3)C(=O)N2[C@H]1C(=O)O [PENICILLIN G],–,–,–,–,12.5 µg/mL,50 µg/mL,–,12.5 µg/mL,–,–,25 µg/mL,50 µg/mL,–,–
CCOC(=O)N1CCN(CC(=O)N2C(c3ccc(OC)cc3)C(C)C(=O)C(C)C2c2ccc(OC)cc2)CC1 (centres undefined),200 µg/mL,100 µg/mL,–,16 µg/mL,200 µg/mL,100 µg/mL,50 µg/mL,50 µg/mL,200,100 µg/mL,100 µg/mL,100 µg/mL,1.56,–
CCOC(=O)N1CCN(CC(=O)N2C(c3ccccc3)C(C)C(=O)C(C)C2c2ccccc2)CC1 (centres undefined),25 µg/mL,100 µg/mL,100 µg/mL,–,25 µg/mL,–,100 µg/mL,–,–,100 µg/mL,50 µg/mL,200 µg/mL,–,Activity (Bacillus subtilis [16]): inactive
CCOC(=O)N1CCN(CC(=O)N2C(c3ccccc3)CC(=O)C(C)C2c2ccccc2)CC1 (centres undefined),50 µg/mL,100 µg/mL,–,> 256 µg/mL,50 µg/mL,100 µg/mL,200 µg/mL,50 µg/mL,–,200 µg/mL,200 µg/mL,100 µg/mL,–,Activity (Candida albicans [17]): inactive
